Our source for the Ki values is patent publication US8680275B2, “Fused heterocyclic compounds as orexin receptor modulators” (Janssen Pharmaceutica NV, priority 2009, dated 2014).

In one experiment the target is human orexin 1 receptor (Homo sapiens (Human), UniProt O43613). The experiment can be described thus: Human orexin 1 receptor radioligand binding ([3H]-SB674042 competition). The settings on record: CHO cells stably expressing human orexin 1 receptor; [3H]-SB674042 4 nM final; read-out: OR-1 Ki. How it is done:
(§1) The in vitro affinity of the compounds for the human orexin-1 and orexin-2 receptors was determined by competitive radioligand binding using [^3H]SB SB674042 (1-(5-(2-fluoro-phenyl)-2-methyl-thiazol-4-yl)-1-((S)-2-(5-phenyl-(1,3,4)oxadiazol-2-ylmethyl)-pyrrolidin-1-yl)methanone) (Langmead et al., British Journal of Pharmacology 2004, 141:340-346.) and [^3H]EMPA (N-ethyl-2[(6-methoxy-pyridin-3-yl)-(toluene-2-sulfonyl)-amino]-N-pyridin-3-ylmethyl acetamide) (Malherbe et al., British Journal of Pharmacology, 2009, 156(8), 1326-1341), respectively.
Human Orexin 1 Receptor Radioligand Binding Studies
Chinese ovary cells (CHO) stably expressing human orexin 1 receptor (Genebank accession number NM_001526) were grown to confluency in DMEM/F12 (Gibco, Cat #11039), 10% FBS, 1× Pen/Strep, 600 μg/mL G418 media on 150 cm^2 tissue culture plates, washed with 5 mM EDTA in PBS (HyClone Dulbecco's Phoshpate Buffered Saline 1× with Calcium and Magnesium, Cat #SH30264.01, hereafter referred to simply as PBS) and scraped into 50 ml tubes. After centrifugation (2K xG, 10 min at 4° C.), the supernatant was aspirated and the pellets frozen and stored at −80° C. Cells were resuspended in PBS in the presence of 1 tablet of protease inhibitor cocktail (Roche, Cat. #11836145001) per 50 mL. […] Compounds were solubilized in 100% DMSO (Acros Organics, Cat. #61042-1000) and tested over a range of 7 concentrations (from 0.1 nM to 10 μM). The final concentration of DMSO in the reactions is equal to or less than 0.1%. Total and nonspecific binding was determined in the absence and presence of 10 μM (1-(6,8-difluoro-2-methylquinolin-4-yl)-3-[4-(dimethylamino)phenyl]urea, CAS Registry #288150-92-5). The total volume of each reaction is 200 μL (20 μL of diluted compounds, 80 μL of [^3H]-SB674042 diluted in PBS and 100 μL of the cell suspension). Reactions were run for 60 min at room temperature and terminated by filtration through GF/C filter plates (PerkinElmer, Cat. #6005174) presoaked in 0.3% polyethylenimine using the cell harvester (PerkinElmer Filtermate). The plates were washed 3 times by aspirating 30 ml PBS through the plates. Plates were dried in 55° C. oven for 60 min, scintillation fluid was added, and the radioactivity was counted on a Topcount (Packard).

The target of a further experiment is human orexin-2 receptor (Homo sapiens (Human), UniProt O43614). The experiment can be described thus: Human orexin 2 receptor radioligand binding ([3H]-EMPA competition). To be noted: HEK293 cells stably expressing human orexin-2 receptor; [3H]-EMPA 5 nM final; read-out: OR-2 Ki. How it is done:
as §1
Human Orexin 2 Receptor Radioligand Binding Studies
HEK293 stably expressing human orexin-2 receptor (Genebank accession number NM_001526) were grown to confluency in DMEM/F12 (Gibco, Cat #11039), in DMEM, 10% FBS, 1× Pen/Strep, 1× NaPyruvate, 1×HEPES, 600 ug/ml G418 media on 150 cm^2 tissue culture plates, washed with 5 mM EDTA in PBS (HyClone Dulbecco's Phosphate Buffered Saline 1× with Calcium and Magnesium, Cat #SH30264.01, hereafter referred to simply as PBS) and scraped into 50 ml tubes. After centrifugation (2K xG, 10 min at 4° C.), the supernatant was aspirated and the pellets frozen and stored at −80° C. Cells were resuspended in PBS in the presence of 1 tablet of protease inhibitor cocktail (Roche, Cat. #11836145001) per 50 mL. […] Competition binding experiments in 96 well polypropylene plates were performed using [^3H]-EMPA (Moravek Corporation, specific activity=27 Ci/mmol), diluted to a […] concentration in PBS (5 nM final concentration). Compounds were solubilized in 100% DMSO (Acros Organics, Cat. #61042-1000) and tested over a range of 7 concentrations (from 0.1 nM to 10 μM). The final concentration of DMSO in the reactions is equal to or less than 0.1%. Total and nonspecific binding was determined in the absence and presence of 10 μM (N-[2-(3,4-dimethoxyphenyl)ethyl]-N-methylnaphthalene-1-carboxamide, CAS Registry #1089563-88-1). The total volume of each reaction is 200 μL (20 μL of diluted compounds, 80 μL of [^3H]-EMPA diluted in PBS and 100 μL of the cell suspension). Reactions were run for 60 min at room temperature and terminated by filtration through GF/C filter plates (PerkinElmer, Cat. #6005174) presoaked in 0.3% polyethylenimine using the cell harvester (Perkin Elmer Filtermate). The plates were washed 3 times by aspirating 30 ml PBS through the plates. Plates were dried in 55° C. oven for 60 min, scintillation fluid was added, and the radioactivity was counted on a Topcount (Packard).

Sequence of human orexin-2 receptor (O43614 whole entry): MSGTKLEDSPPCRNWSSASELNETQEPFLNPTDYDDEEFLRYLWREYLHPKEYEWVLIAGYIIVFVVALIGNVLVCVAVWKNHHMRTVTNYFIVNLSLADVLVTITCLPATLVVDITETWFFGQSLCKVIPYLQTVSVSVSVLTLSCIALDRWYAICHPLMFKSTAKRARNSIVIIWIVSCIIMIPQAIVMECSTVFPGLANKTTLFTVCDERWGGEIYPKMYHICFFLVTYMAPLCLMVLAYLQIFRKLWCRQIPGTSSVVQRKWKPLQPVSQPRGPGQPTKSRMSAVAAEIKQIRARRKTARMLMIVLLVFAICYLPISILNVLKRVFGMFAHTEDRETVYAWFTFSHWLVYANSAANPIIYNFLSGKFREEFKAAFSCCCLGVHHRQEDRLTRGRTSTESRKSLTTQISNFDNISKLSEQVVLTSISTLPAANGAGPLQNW
Sequence of human orexin 1 receptor (O43613 whole entry): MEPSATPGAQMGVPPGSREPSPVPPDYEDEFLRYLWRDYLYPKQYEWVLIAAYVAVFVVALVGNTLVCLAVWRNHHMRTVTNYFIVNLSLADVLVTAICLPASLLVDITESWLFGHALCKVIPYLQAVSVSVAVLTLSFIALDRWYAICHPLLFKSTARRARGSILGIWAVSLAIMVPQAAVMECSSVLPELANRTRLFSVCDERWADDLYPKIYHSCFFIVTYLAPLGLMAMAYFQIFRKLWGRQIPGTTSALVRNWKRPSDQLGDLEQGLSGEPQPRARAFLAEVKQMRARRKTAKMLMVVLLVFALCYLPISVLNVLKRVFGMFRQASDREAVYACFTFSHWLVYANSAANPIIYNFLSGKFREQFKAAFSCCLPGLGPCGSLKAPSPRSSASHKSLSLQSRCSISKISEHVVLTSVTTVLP

As for `Cc1cnc(-n2ccnn2)c(C(=O)N2CC[C@H]3CN(c4nc(C)cc(C)n4)[C@H]3C2)c1` [Example 161, (1R,6S)-8-(4,6-Dimethylpyrimidin-2-yl)-3-{[5-methyl-2-(1H-1,2,3-triazol-1-yl)pyridin-3-yl]carbonyl}-3,8-diazabicyclo[4.2.0]octane], the Ki on human orexin 1 receptor was found to be 4.5 µM; on human orexin-2 receptor, 0.28 µM.
Take `Cc1cc(C)nc(N2C[C@@H]3CCN(C(=O)c4ncccc4-n4ccnn4)C[C@@H]32)n1` [Example 182, (1R,6S)-8-(4,6-Dimethylpyrimidin-2-yl)-3-{[3-(1H-1,2,3-triazol-1-yl)pyridin-2-yl]carbonyl}-3,8-diazabicyclo[4.2.0]octane]: the values for the Ki on human orexin 1 receptor and on human orexin-2 receptor were 10 µM and 1.5 µM, respectively.
The like results for `CN(C)c1nc(N2C[C@@H]3CCN(C(=O)c4cc(F)ccc4-n4nccn4)C[C@@H]32)cc(C(F)(F)F)n1` [Example 46, (1R,6S)-[8-(2-Dimethylamino-6-trifluoromethyl-pyrimidin-4-yl)-3,8-diaza-bicyclo[4.2.0]oct-3-yl]-(5-fluoro-2-[1,2,3]triazol-2-yl-phenyl)-methanone] were, in that order, 0.047 µM and 0.015 µM.
Regarding `COc1ccc(-n2nccn2)c(C(=O)N2CC[C@H]3CN(c4cc(C(F)(F)F)ccn4)[C@H]3C2)c1` [Example 140, (1R,6S)-3-{[5-Methoxy-2-(2H-1,2,3-triazol-2-yl)phenyl]carbonyl}-8-[4-(trifluoromethyl)pyridin-2-yl]-3,8-diazabicyclo[4.2.0]octane], the Ki was found to be 1.07 µM on human orexin 1 receptor and 0.07 µM on human orexin-2 receptor.
On to `Cc1cncc(N2C[C@@H]3CCN(C(=O)c4c(F)cccc4-n4nccn4)C[C@@H]32)n1` [Example 113, (1R,6S)-3-{[2-Fluoro-6-(2H-1,2,3-triazol-2-yl)phenyl]carbonyl}-8-(6-methylpyrazin-2-yl)-3,8-diazabicyclo[4.2.0]octane], for which the values for the Ki on human orexin 1 receptor and on human orexin-2 receptor were 9 µM and 0.161 µM, respectively.
For `Cc1cccc(C(=O)N2CC[C@H]3CN(c4cc(N(C)C)ccn4)[C@H]3C2)c1-n1nccn1` [Example 141, N,N-Dimethyl-2-[(1R,6S)-3-{[3-methyl-2-(2H-1,2,3-triazol-2-yl)phenyl]carbonyl}-3,8-diazabicyclo[4.2.0]oct-8-yl]pyridin-4-amine], in that order: 9 µM and 0.734 µM.
For `Cc1cc(C)nc(N2C[C@@H]3CCN(C(=O)c4cccc(F)c4-c4ncccn4)C[C@@H]32)c1` [Example 153, (1R,6S)-8-(4,6-Dimethylpyridin-2-yl)-3-[(3-fluoro-2-pyrimidin-2-ylphenyl)carbonyl]-3,8-diazabicyclo[4.2.0]octane], in that order: 0.687 µM and 0.082 µM.
For `Cc1cnc(N2C[C@@H]3CCN(C(=O)c4c(F)cccc4-n4nccn4)C[C@@H]32)cn1` [Example 101, (1R,6S)-3-{[2-Fluoro-6-(2H-1,2,3-triazol-2-yl)phenyl]carbonyl}-8-(5-methylpyrazin-2-yl)-3,8-diazabicyclo[4.2.0]octane], in that order: 6.6 µM and 0.19 µM.
In the case of `Cc1cc(C)nc(N2C[C@@H]3CCN(C(=O)c4cc(F)ccc4-n4nccn4)C[C@@H]32)c1` [Example 128, (1R,6S)-8-(4,6-Dimethylpyridin-2-yl)-3-{[5-fluoro-2-(2H-1,2,3-triazol-2-yl)phenyl]carbonyl}-3,8-diazabicyclo[4.2.0]octane], the Ki on human orexin 1 receptor was found to be 1.01 µM; at human orexin-2 receptor, 0.026 µM.
For `Cc1onc(-c2ccccc2)c1C(=O)N1CC[C@H]2CN(c3ccnc(-c4ccccc4)n3)[C@H]2C1` [Example 197, (5-Methyl-3-phenylisoxazol-4-yl)((1R,6S)-8-(2-phenylpyrimidin-4-yl)-3,8-diazabicyclo[4.2.0]octan-3-yl)methanone], in that order: 2.6 µM and 3.1 µM.
For `Cc1cnc(C)c(N2C[C@@H]3CCN(C(=O)c4cccc(F)c4-n4nccn4)C[C@@H]32)n1` [Example 99, (1R,6S)-8-(3,6-Dimethylpyrazin-2-yl)-3-{[3-fluoro-2-(2H-1,2,3-triazol-2-yl)phenyl]carbonyl}-3,8-diazabicyclo[4.2.0]octane], in that order: 4.13 µM and 0.096 µM.
As for `Cc1ccnc(N2CC3CN(C(=O)c4ccccc4Br)CC32)n1` (stereo not drawn) [Example 59, (2-Bromo-phenyl)-[6-(4-methyl-pyrimidin-2-yl)-3,6-diaza-bicyclo[3.2.0]hept-3-yl]-methanone], the Ki on human orexin 1 receptor turned out to be 10 µM; on human orexin-2 receptor, 9.32 µM.
In the case of `Cc1nc(N)cc(N2C[C@@H]3CCN(C(=O)c4cc(F)ccc4-n4nccn4)C[C@@H]32)n1` [Example 191, 6-[(1R,6S)-3-{[5-Fluoro-2-(2H-1,2,3-triazol-2-yl)phenyl]carbonyl}-3,8-diazabicyclo[4.2.0]oct-8-yl]-2-methylpyrimidin-4-amine], the Ki at human orexin 1 receptor came out at 10 µM; on human orexin-2 receptor, 0.23 µM.
Take `O=C(c1ccc(F)cc1-n1nccn1)N1CC[C@H]2CN(c3nc4cc(Cl)ccc4o3)[C@H]2C1` [Example 122, 5-Chloro-2-[(1R,6S)-3-{[4-fluoro-2-(2H-1,2,3-triazol-2-yl)phenyl]carbonyl}-3,8-diazabicyclo[4.2.0]oct-8-yl]-1,3-benzoxazole]: the figures for the Ki on human orexin 1 receptor and at human orexin-2 receptor were 0.128 µM and 0.059 µM, respectively.
For `O=C(c1ccccc1-c1cccs1)N1C[C@@H]2CN(c3nccc(-c4ccccc4)n3)[C@@H]2C1` (single isomer, unassigned) [Example 55, 6-(4-Phenylpyrimidin-2-yl)-3-[(2-thiophen-2-ylphenyl)carbonyl]-3,6-diazabicyclo[3.2.0]heptane], in that order: 0.274 µM and 0.092 µM.
In the case of `Cc1ccc(C)c(S(=O)(=O)N2CCC3CN(c4cnc5ccccc5n4)C3C2)c1` (stereo not drawn) [Example 21, 2-[3-(2,5-Dimethyl-benzenesulfonyl)-3,8-diaza-bicyclo[4.2.0]oct-8-yl]-quinoxaline], the Ki at human orexin 1 receptor is 1.21 µM; at human orexin-2 receptor, 3.78 µM.
Regarding `Cc1cc(C)nc(N2C[C@@H]3CCN(C(=O)c4cc(F)ccc4Br)C[C@@H]32)n1` [Example 164, (1R,6S)-3-[(2-Bromo-5-fluorophenyl)carbonyl]-8-(4,6-dimethylpyrimidin-2-yl)-3,8-diazabicyclo[4.2.0]octane], the Ki at human orexin 1 receptor turned out to be 3.9 µM; at human orexin-2 receptor, 0.19 µM.
Turning to `Cc1cccc(N2C[C@@H]3CCN(C(=O)c4c(F)cccc4-n4nccn4)C[C@@H]32)n1` [Example 124, (1R,6S)-3-{[2-Fluoro-6-(2H-1,2,3-triazol-2-yl)phenyl]carbonyl}-8-(6-methylpyridin-2-yl)-3,8-diazabicyclo[4.2.0]octane], the Ki at human orexin 1 receptor came out at 4.15 µM; on human orexin-2 receptor, 0.092 µM.
